From ChEMBL document CHEMBL1138175, “Novel 1alpha,25-dihydroxyvitamin D3 analogues with the side chain at C12” (J Med Chem, 2006)

What was measured:
[1] = molecular target: T1, Vitamin D3 receptor (Homo sapiens) (UniProt P11473); experiment: Effect on Gal4 DBD-hVDRdelta LBD construct transactivation in COS7 cells at 10(-7) M; type: functional, cell-based; settings: COS-7
T1 sequence (whole entry): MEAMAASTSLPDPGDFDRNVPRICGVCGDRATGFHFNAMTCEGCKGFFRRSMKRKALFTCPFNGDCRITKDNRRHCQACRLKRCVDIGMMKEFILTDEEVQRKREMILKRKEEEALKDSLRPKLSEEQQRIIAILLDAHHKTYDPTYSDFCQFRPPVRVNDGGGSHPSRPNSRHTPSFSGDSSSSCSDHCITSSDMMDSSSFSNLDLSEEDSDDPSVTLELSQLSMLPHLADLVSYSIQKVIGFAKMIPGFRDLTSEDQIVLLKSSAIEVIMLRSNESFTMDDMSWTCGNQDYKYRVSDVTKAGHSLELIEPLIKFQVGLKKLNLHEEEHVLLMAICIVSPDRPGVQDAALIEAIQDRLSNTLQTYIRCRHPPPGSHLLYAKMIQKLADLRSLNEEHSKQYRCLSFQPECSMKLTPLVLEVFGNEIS

[2] = molecular target: T1, Vitamin D3 receptor (Homo sapiens); experiment: Effect on Gal4 DBD-hVDRdelta LBD construct transactivation in COS7 cells at 10(-5) M; type: functional, cell-based; settings: COS-7

| Activity [1] [%] | Activity [2] [%] | SMILES |
| --- | --- | --- |
| 20 | 100 | C=C1/C(=C\C=C2/CC[C@@H](CCCCCCC(C)(C)O)[C@]3(C)CCC[C@@H]23)C[C@@H](O)C[C@@H]1O |
| 6 | – | C=C1/C(=C\C=C2/CC[C@@H](CCCCCCCC(C)(C)O)[C@]3(C)CCC[C@@H]23)C[C@@H](O)C[C@@H]1O |
| 8 | – | C=C1/C(=C\C=C2/CC[C@@H](CCCCCC(C)(C)O)[C@]3(C)CCC[C@@H]23)C[C@@H](O)C[C@@H]1O |
